The text below walks through data of patent publication US11236092B2, “Spiro-condensed pyrrolidine derivatives as deubiquitylating enzymes (DUB) inhibitors” (MISSION THERAPEUTICS LIMITED, priority 2016, dated 2022).

In general, IC50 refers to the concentration at which inhibition is half-maximal.

Sequence of Cezanne 1 (Q6GQQ9 whole entry): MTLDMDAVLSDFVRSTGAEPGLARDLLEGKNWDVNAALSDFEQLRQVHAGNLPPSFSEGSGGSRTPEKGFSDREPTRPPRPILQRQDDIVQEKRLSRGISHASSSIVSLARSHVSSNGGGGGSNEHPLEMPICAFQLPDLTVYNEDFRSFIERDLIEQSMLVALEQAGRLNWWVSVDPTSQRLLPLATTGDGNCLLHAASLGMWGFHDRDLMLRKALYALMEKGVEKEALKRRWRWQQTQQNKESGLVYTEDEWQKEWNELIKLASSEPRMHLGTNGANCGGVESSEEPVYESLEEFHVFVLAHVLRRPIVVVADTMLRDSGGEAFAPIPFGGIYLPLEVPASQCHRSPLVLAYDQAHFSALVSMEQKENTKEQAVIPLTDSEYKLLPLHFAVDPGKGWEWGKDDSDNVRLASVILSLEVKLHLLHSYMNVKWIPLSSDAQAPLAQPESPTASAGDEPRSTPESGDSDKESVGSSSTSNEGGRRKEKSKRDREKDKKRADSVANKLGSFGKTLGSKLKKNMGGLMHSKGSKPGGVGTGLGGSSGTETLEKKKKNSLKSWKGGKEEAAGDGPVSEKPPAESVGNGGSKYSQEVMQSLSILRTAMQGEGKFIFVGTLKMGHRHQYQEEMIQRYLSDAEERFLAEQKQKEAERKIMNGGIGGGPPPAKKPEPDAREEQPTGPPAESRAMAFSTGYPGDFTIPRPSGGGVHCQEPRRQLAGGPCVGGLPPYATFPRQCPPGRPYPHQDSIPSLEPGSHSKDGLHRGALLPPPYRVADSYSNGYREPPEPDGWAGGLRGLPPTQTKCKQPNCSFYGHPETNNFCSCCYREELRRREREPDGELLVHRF

In this experiment the target is Cezanne 1 (Homo sapiens (Human), UniProt Q6GQQ9). As to the kind of experiment: Cezanne 1 biochemical IC50 assay (fluorescence polarisation). The conditions noted are these: FLAG-Cezanne 1; enzyme and compound incubated 30 min at room temp; 50 nM TAMRA labelled peptide linked to ubiquitin as substrate; read after 2 hr; read-out: IC50 range. The protocol:
Expression and Purification of Cezanne 1
The Cezanne 1 construct was PCR amplified and cloned into a pFLAG-CMV-6c vector (Sigma-Aldrich) with an N-terminal FLAG tag. HEK293T cells were transfected with FLAG-Cezanne 1 using TransIT-LT1 transfection reagent (Mirus) according to the manufacturer's instructions. Cells were harvested 48 hours after transfection. […] The resin was washed two times with low salt buffer and one time with high salt buffer (20 mM Tris, pH 7.5, 500 mM NaCl, 0.5 mM EDTA, 5 mM beta-mercaptoethanol, protease inhibitors (complete mini, Roche) and phosphatase inhibitors (PhosSTOP mini, Roche). To elute the bound Cezanne 1, elution buffer (10 mM Tris, pH 7.5, 150 mM NaCl, 0.5 mM EDTA, 10% glycerol, 0.5% NP40, 5 mM beta-mercaptoethanol, 0.15 mg/ml 3X FLAG peptide (Sigma-Aldrich)) was added to the resin and incubated at 4° C. for 2.5 hours while rotating. The resin was centrifuged at 4000 rpm for 30 seconds, and the supernatant containing purified FLAG-Cezanne 1 was removed and stored at −80° C.
Cezanne 1 Biochemical IC50 Assay
Dilution plates were prepared at 21 times the final concentration (2100 μM for a final concentration of 100 μM) in 50% DMSO in a 96-well polypropylene V-bottom plate (Greiner #651201). A typical 8-point dilution series to be 100, 30, 10, 3, 1, 0.3, 0.1, 0.03 μM final. Reactions were performed in duplicate in black 384 well plates (small volume, Greiner 784076) in a final reaction volume of 21 μl. Either 1 μl of 50% DMSO or diluted compound was added to the plate. Cezanne 1 was diluted in reaction buffer (40 mM Tris, pH 7.5, 0.005% Tween 20, 0.5 mg/ml BSA, 5 mM—beta-mercaptoethanol) to the equivalent of 0.005 μl/well and 10 μl of diluted Cezanne 1 was added to the compound. Enzyme and compound were incubated for 30 min at room temp. Reactions were initiated by the addition of 50 nM of TAMRA labelled peptide linked to ubiquitin via an iso-peptide bond as fluorescence polarisation substrate. Reactions were read immediately after addition of substrate and following a 2 hr incubation at room temperature. Readings were performed on a Pherastar Plus (BMG Labtech). λ Excitation 540 nm; λ Emission 590 nm.
Background: Fluorescence polarisation rises when a labelled molecule tumbles more slowly, as on binding a larger partner.
“3-(1-Cyano-2′-oxo-1′4′-dihydro-2′H-spiro┌pyrrolidine-3,3′-quinolin┐-7′-yl)-N,N-dimethylbenzamide [Example 30]”: the IC50 was in the range of 100 to 1000 nM.

Turning to “7′-(2-Methylpyridin-4-yl)-2′-oxo-1′,4′-dihydro-2′H-spiro┌pyrrolidine-3,3′-quinoline┐-1-carbonitrile [Example 34]”, the IC50 was 1000 to 10000 nM.

Consider “7′-(3-Cyanophenyl)-2′-oxo-l′,4′-dihydro-2′H-spiro┌pyrrolidine-3,3′-quinoline┐-1-carbonitrile [Example 9]”, for which the IC50 lay within 1000 to 10000 nM.

Take “2′-Oxo-7′-(4-phenoxyphenyl)-l′,4′-dihydro-2′H-spiro┌pyrrolidine-3,3′-quinoline┐-1-carbonitrile [Example 11]”: the IC50 was in the range of 1000 to 10000 nM.

With “7′-(1-Methyl-1H-pyrazol-5-yl)-2′-oxo-1′,4′-dihydro-2′H-spiro┌pyrrolidine-3,3′-quinoline┐-1-carbonitrile [Example 10]”, the IC50 lay in the range of 1000 to 10000 nM.
